Reference: US20120090502A1, “DIS-AZO COMPOUND AND OIL INK AND ELECTROWETTING DISPLAYS COMPRISING THE SAME” (JINTEX CORPORATION LTD., priority 2010, published 2012)

What was measured:
Format in all cases: physicochemical
[1] = oil ink performance test: viscosity and surface tension; set-up: surface tension (dyne/cm^2): unit not given here; conditions: for surface tension (dyne/cm^2): oil ink in dodecane; for viscosity (cp): oil ink: 1.0 g dye dispersed in 10 g dodecane, filtered 0.45 μm
Method: 1.0 g of purified dye (dis-azo compound of the present invention) weighed was dispersed in 10 g of dodecane and then heated to 80° C. and stirred for one hour. After that, the mixture solution was removed to a ultrasonic oscillator and oscillated for one hour and then filtered through 0.45 μm filter to obtain the oil ink of the present invention. […] According to Table 3, ail of the oil ink of the present invention fulfills elementary conditions of oil ink for electrowetting display.

[2] = maximum absorption wavelength and molar absorption coefficient in dodecane; conditions: for wavelength (nm)/dodecane: maximum absorption wavelength
[3] = oil ink tested by UV-Vis spectrophotometer; set-up: FoM / value of a / value of b: scale not given here; conditions: oil ink in dodecane; for FoM: Figure of Merit = ε×C; for full width at half maximum (nm): wavelength range at half height of absorption at λ max
Method: 1.0 g of purified dye (dis-azo compound of the present invention) weighed was dispersed in 10 g of dodecane and then heated to 80° C. and stirred for one hour. After that, the mixture solution was removed to a ultrasonic oscillator and oscillated for one hour and then filtered through 0.45 μm filter to obtain the oil ink of the present invention. The oil ink of the present invention was tested by UV-Vis spectrophotometer. According to Table 3, ail of the oil ink of the present invention fulfills elementary conditions of oil ink for electrowetting display.

solubility in dodecane = experiment: solubility in dodecane

With CCCCCCCCCCc1ccc(N=Nc2ccc(N=Nc3ccc4c5c(cccc35)NC(C)(CCCC)N4)c3ccccc23)cc1 (racemic) [D10-C1,4] the “surface tension (dyne/cm^2)” value [1] was 23.6, the “viscosity (cp)” value [1] was 2.42 cp and the “ε (molar absorption coefficient)” value [2] was 9.11 × 10^3. The “wavelength (nm)/dodecane” value [2] was 560 nm, the FoM [3] was 232 and the “full width at half maximum (nm)” value [3] was 320 nm. The “solubility (%)” value (solubility in dodecane) was 2.15%.

For CCCCc1ccc(N=Nc2ccc(N=Nc3ccc4c5c(cccc35)NC(CC(C)C)(CC(C)C)N4)c3ccccc23)cc1 [D4-C4,4], the “surface tension (dyne/cm^2)” value [1] was 24.5, the “viscosity (cp)” value [1] was 2.21 cp and the “ε (molar absorption coefficient)” value [2] was 3.41 × 10^3. The “wavelength (nm)/dodecane” value [2] was 560 nm, the FoM [3] was 191 and the “full width at half maximum (nm)” value [3] was 250 nm. The “solubility (%)” value (solubility in dodecane) was 4.00%.

In the case of CCCCCCCCc1ccc(N=Nc2ccc(N=Nc3ccc4c5c(cccc35)NC(CC)(CC)N4)c3ccccc23)cc1 [D8-C2,2], the “surface tension (dyne/cm^2)” value [1] is reported as 23.2, the “viscosity (cp)” value [1] is reported as 2.42 cp and the “ε (molar absorption coefficient)” value [2] is reported as 7.05 × 10^3. The “wavelength (nm)/dodecane” value [2] was 580 nm, the FoM [3] was 526 and the “full width at half maximum (nm)” value [3] was 300 nm. The “solubility (%)” value (solubility in dodecane) was 6.00%.

With CCCCCCCCc1ccc(N=Nc2ccc(N=Nc3ccc4c5c(cccc35)NC(CC(C)C)(CC(C)C)N4)c3ccccc23)cc1 [D8-C4,4] the “surface tension (dyne/cm^2)” value [1] was 23.5, the “viscosity (cp)” value [1] was 2.33 cp and the “ε (molar absorption coefficient)” value [2] was 9.50 × 10^3. For the same molecule, the “wavelength (nm)/dodecane” value [2] was 580 nm, the FoM [3] was 320 and the “full width at half maximum (nm)” value [3] was 300 nm. The “solubility (%)” value (solubility in dodecane) was 2.96%.

In the case of CCCCCCCCCCc1ccc(N=Nc2ccc(N=Nc3ccc4c5c(cccc35)NC(CC)(CC)N4)c3ccccc23)cc1 [D10-C2,2], the “surface tension (dyne/cm^2)” value [1] is reported as 25.1, the “viscosity (cp)” value [1] is reported as 2.35 cp and the “ε (molar absorption coefficient)” value [2] is reported as 8.13 × 10^3. The “wavelength (nm)/dodecane” value [2] was 580 nm, the FoM [3] was 779 and the “value of L” value ([3]; hue) was 0.01. The value of a ([3]; hue) was 0.38, the value of b ([3]; hue) was −0.18 and the “full width at half maximum (nm)” value [3] was 320 nm. The “solubility (%)” value (solubility in dodecane) was 8.00%.

In the case of CCCCCCCCCCc1ccc(N=Nc2ccc(N=Nc3ccc4c5c(cccc35)NC(CC(C)C)(CC(C)C)N4)c3ccccc23)cc1 [D10-C4,4], the “surface tension (dyne/cm^2)” value [1] is reported as 24.8, the “viscosity (cp)” value [1] is reported as 2.55 cp and the “ε (molar absorption coefficient)” value [2] is reported as 9.95 × 10^3. For the same molecule, the “wavelength (nm)/dodecane” value [2] was 590 nm, the FoM [3] was 136 and the “full width at half maximum (nm)” value [3] was 320 nm. For the same molecule, the “solubility (%)” value (solubility in dodecane) was 1.23%.
